Laboratory results: ChEMBL document CHEMBL3885881, “DrugMatrix”

Species on record: Rattus norvegicus
Assay: DrugMatrix - Regimen: Daily Repeat
Format: toxicity, organism-based, Sprague-Dawley
Set-up: regimen Daily Repeat, gender Male, age 6-8 weeks
Conditions: in vivo, po, route oral GAVAGE, vehicle .5 % CMC; for ABSOLUTE BASOPHIL / ABSOLUTE EOSINOPHIL / ABSOLUTE LYMPHOCYTE / ABSOLUTE MONOCYTE / ABSOLUTE SEGMENTED NEUTROPHIL / BASOPHIL / EOSINOPHIL / HEMATOCRIT / LEUKOCYTE COUNT / LYMPHOCYTE / MEAN CORPUSCULAR HEMOGLOBIN / MEAN CORPUSCULAR HEMOGLOBIN CONCENTRATION / MEAN CORPUSCULAR VOLUME / MONOCYTE / NEUTROPHIL / NUCLEATED RED BLOOD CELLS / PLATELET COUNT: tissue Blood; for ALANINE AMINOTRANSFERASE / ALBUMIN / ALKALINE PHOSPHATASE / ASPARTATE AMINOTRANSFERASE / BLOOD UREA NITROGEN / CARBON DIOXIDE / CHLORIDE / CHOLESTEROL / CREATININE / GLUCOSE / LACTATE DEHYDROGENASE / LIPASE / PHOSPHORUS / SODIUM / TOTAL BILIRUBIN / TOTAL PROTEIN / URIC ACID: tissue Plasma
[1] = 23 mg/kg, 120 h, dose level High, time 5 day
[2] = […], 72 h, dose 2.5 mg/Kg, dose level Low, time 3 day
[3] = […], 120 h, dose 2.5 mg/Kg, dose level Low, time 5 day

Compound: Cc1cc2c(s1)Nc1ccccc1N=C2N1CCN(C)CC1 [OLANZAPINE]
- ABSOLUTE BASOPHIL [1]: 0 CELLS/uL
- ABSOLUTE EOSINOPHIL [1]: 52 CELLS/uL
- ABSOLUTE LYMPHOCYTE [1]: 13243.33 CELLS/uL
- ABSOLUTE MONOCYTE [1]: 98.33 CELLS/uL
- ABSOLUTE SEGMENTED NEUTROPHIL [1]: 1106.33 CELLS/uL
- BASOPHIL [1]: 0%
- EOSINOPHIL [1]: 0.33%
- HEMATOCRIT [1]: 38.23%
- LEUKOCYTE COUNT [1]: 14.5 x10E3/uL
- LYMPHOCYTE [1]: 91.33%
- MEAN CORPUSCULAR HEMOGLOBIN [1]: 24.67 pg
- MEAN CORPUSCULAR HEMOGLOBIN CONCENTRATION [1]: 39.5 G/DL
- MEAN CORPUSCULAR VOLUME [1]: 62.5 fL
- MONOCYTE [1]: 0.67%
- NEUTROPHIL [1]: 7.67%
- NUCLEATED RED BLOOD CELLS [1]: 0 /100WBC
- PLATELET COUNT [1]: 1008.67 x10E3/uL
- ALANINE AMINOTRANSFERASE [1]: 50 u/L
- ALBUMIN [1]: 4.4 G/DL
- ALKALINE PHOSPHATASE [1]: 282.67 u/L
- ASPARTATE AMINOTRANSFERASE [1]: 108.67 u/L
- BLOOD UREA NITROGEN [1]: 22.33 mg/dL
- CARBON DIOXIDE [1]: 27.33 mmol/L
- CHLORIDE [1]: 104.33 MEQ/L
- CHOLESTEROL [1]: 78.33 mg/dL
- CREATININE [1]: 0.26 mg/dL
- GLUCOSE [1]: 150.33 mg/dL
- LACTATE DEHYDROGENASE [1]: 306 u/L
- LIPASE [1]: 9.33 u/L
- PHOSPHORUS [1]: 11.63 mg/dL
- SODIUM [1]: 146.17 MEQ/L
- TOTAL BILIRUBIN [1]: 0.27 mg/dL
- TOTAL PROTEIN [1]: 6.1 G/DL
- URIC ACID [1]: 1.4 mg/dL
- ABSOLUTE BASOPHIL [2]: 0 CELLS/uL
- ABSOLUTE EOSINOPHIL [2]: 116 CELLS/uL
- ABSOLUTE LYMPHOCYTE [2]: 13788.67 CELLS/uL
- ABSOLUTE MONOCYTE [2]: 239.33 CELLS/uL
- ABSOLUTE SEGMENTED NEUTROPHIL [2]: 1189.33 CELLS/uL
- BASOPHIL [2]: 0%
- EOSINOPHIL [2]: 1%
- HEMATOCRIT [2]: 35.03%
- LEUKOCYTE COUNT [2]: 15.33 x10E3/uL
- LYMPHOCYTE [2]: 90%
- MEAN CORPUSCULAR HEMOGLOBIN [2]: 24.27 pg
- MEAN CORPUSCULAR HEMOGLOBIN CONCENTRATION [2]: 38.63 G/DL
- MEAN CORPUSCULAR VOLUME [2]: 62.87 fL
- MONOCYTE [2]: 1.67%
- NEUTROPHIL [2]: 7.33%
- NUCLEATED RED BLOOD CELLS [2]: 0 /100WBC
- PLATELET COUNT [2]: 1228.33 x10E3/uL
- ALANINE AMINOTRANSFERASE [2]: 53.33 u/L
- ALBUMIN [2]: 4.17 G/DL
- ALKALINE PHOSPHATASE [2]: 352.67 u/L
- ASPARTATE AMINOTRANSFERASE [2]: 94.33 u/L
- BLOOD UREA NITROGEN [2]: 18 mg/dL
- CARBON DIOXIDE [2]: 26.67 mmol/L
- CHLORIDE [2]: 101 MEQ/L
- CHOLESTEROL [2]: 73.67 mg/dL
- CREATININE [2]: 0.19 mg/dL
- GLUCOSE [2]: 159.67 mg/dL
- LACTATE DEHYDROGENASE [2]: 472.67 u/L
- LIPASE [2]: 10.33 u/L
- PHOSPHORUS [2]: 12.4 mg/dL
- SODIUM [2]: 143.67 MEQ/L
- TOTAL BILIRUBIN [2]: 0.23 mg/dL
- TOTAL PROTEIN [2]: 5.97 G/DL
- URIC ACID [2]: 1.73 mg/dL
- ABSOLUTE BASOPHIL [3]: 0 CELLS/uL
- ABSOLUTE EOSINOPHIL [3]: 0 CELLS/uL
- ABSOLUTE LYMPHOCYTE [3]: 12300.67 CELLS/uL
- ABSOLUTE MONOCYTE [3]: 35.33 CELLS/uL
- ABSOLUTE SEGMENTED NEUTROPHIL [3]: 2030.67 CELLS/uL
- BASOPHIL [3]: 0%
- EOSINOPHIL [3]: 0%
- HEMATOCRIT [3]: 34.77%
- LEUKOCYTE COUNT [3]: 14.37 x10E3/uL
- LYMPHOCYTE [3]: 84.67%
- MEAN CORPUSCULAR HEMOGLOBIN [3]: 25.5 pg
- MEAN CORPUSCULAR HEMOGLOBIN CONCENTRATION [3]: 40.57 G/DL
- MEAN CORPUSCULAR VOLUME [3]: 62.8 fL
- MONOCYTE [3]: 0.33%
- NEUTROPHIL [3]: 15%
- NUCLEATED RED BLOOD CELLS [3]: 0 /100WBC
- PLATELET COUNT [3]: 1181 x10E3/uL
- ALANINE AMINOTRANSFERASE [3]: 50.67 u/L
- ALBUMIN [3]: 4.2 G/DL
- ALKALINE PHOSPHATASE [3]: 327.67 u/L
- ASPARTATE AMINOTRANSFERASE [3]: 96.67 u/L
- BLOOD UREA NITROGEN [3]: 18.67 mg/dL
- CARBON DIOXIDE [3]: 24.67 mmol/L
- CHLORIDE [3]: 101 MEQ/L
- CHOLESTEROL [3]: 82 mg/dL
- CREATININE [3]: 0.23 mg/dL
- GLUCOSE [3]: 160.67 mg/dL
- LACTATE DEHYDROGENASE [3]: 448.33 u/L
- LIPASE [3]: 9.67 u/L
- PHOSPHORUS [3]: 12.83 mg/dL
- SODIUM [3]: 144.87 MEQ/L
- TOTAL BILIRUBIN [3]: 0.27 mg/dL
- TOTAL PROTEIN [3]: 5.9 G/DL
- URIC ACID [3]: 1.7 mg/dL
